Test results taken from patent EP4737449A1 (Changchun Genescience Pharmaceutical Co., Ltd., priority 2023, dated 2025).
Where two headings read alike, the source gives them in different places.

Legend:
p53-Y220C mutant protein = target: T1, p53-Y220C mutant protein (Homo sapiens, UniProt P04637, Y220C); assay: In vitro DNA binding activity assay (TR-FRET); assay type: biochemical; conditions: concentration required to increase the binding activity of protein to DNA by 50%
T1 construct: The recombinant Y220C p53 DBD protein with his-tag
Outline: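 SC150, the compound concentration increasing p53-Y220C DNA binding by 50% relative to vehicle, came from background-corrected 665/615 nm TR-FRET ratios. His-tagged DBD and compound were preincubated 60 min at RT before biotin-DNA plus Eu-anti-His/streptavidin-d2 detection overnight in the dark.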

NUGC-3 cells = assay: NUGC-3 cell proliferation assay (CTG, 7 days); assay type: cell-based, human
Outline: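 Cells (200/well) in 1640 medium with 10% serum exposed to 10-point, 3-fold DMSO dilutions (duplicates) for 7 days at 37°C. Viability read by CellTiter-Glo luminescence; % inhibition normalized to DMSO and blank, IC50 from variable-slope nonlinear fit.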

[1] = target: CYP 3A4 enzyme in human liver microsomes (Homo sapiens, UniProt P08684); assay: CYP3A4 inhibition experiment in human liver microsomes
Method: The inhibitory effects of the test compounds on CYP 3A4T (with testosterone as substrate) and 3A4M (with midazolam as substrate) in human liver microsomes were evaluated in vitro to assess the medication safety of the compounds.
This study used the human liver microsome system and the cytochrome P450 enzyme probe substrate recommended by FDA guidelines for in vitro drug interaction studies to investigate the inhibition of the CYP 3A4 enzyme in human liver microsomes by the test compounds.
Test group (TG): Human liver microsomes were incubated with different concentrations of test compounds, NADPH (final concentration 2.00 mM) and probe substrates of different sub-enzymes (Table 4) for 5 min.
Positive control group (PC): Human liver microsomes were incubated with inhibitors (Table 4), NADPH (final concentration 2.00 mM) and probe substrates of different sub-enzymes (Table 4) for 5 min. Table 4 Probe substrates of sub-enzymes, inhibitors and incubation systems
The system was pre-incubated at 37°C for 5 min, and then 15 µL of 8 mM NADPH solution preheated at 37°C for 5-10 min to start the reaction. After incubation of the 96-well plate at 37°C for 5 min, 180 µL of acetonitrile:methanol (ACN:MeOH=1:1) solution containing internal standard (IS) was added to terminate the reaction. […] 80 µL of the supernatant was taken, added to 120 µL of ultrapure water, shaken evenly, and then detected by LC-MS/MS.
199 µL of 0.2 mg/mL HLM and 1 µL of 1 mM positive control inhibitor (ketoconazole) working solutions were taken and mixed evenly. 30 µL of the drug-containing liver microsome solution was taken and added to a 96-well plate, then 10 µL of substrate working solution (20 µM midazolam) was added, in duplicate. The system was pre-incubated at 37°C for 5 min, and then 15 µL of 8 mM NADPH solution preheated at 37°C for 5-10 min to start the reaction. After incubation of the 96-well plate at 37°C for 5 min, 180 µL of ACN:MeOH(1:1) solution containing IS was added to terminate the reaction. […] 80 µL of the supernatant was taken, added to 120 µL of ultrapure water, shaken evenly, and then detected by LC-MS/MS.
4.2.5.1 The relative activity of CYP450 sub-enzymes at different concentrations was calculated by dividing the peak area ratio (analyte peak area/internal standard peak area) of metabolites in the presence of the test sample or positive control by the peak area ratio of metabolites in the solvent control sample in the absence of the test article or positive control, according to the following formula: [formula] [formula]
4.2.5.2 Half maximal inhibitory concentration (IC50) was obtained by fitting according to the following model formula using Prism software: Y = Bottom + (Top−Bottom)/(1+10^(∧)((LogIC50−X)×HillSlope)) [formula]
X is the test sample concentration converted to logarithm (Log µM), Y is the relative activity (% of NC), Bottom and Top represent the percentage of enzyme activity at the bottom platform and top platform of the curve, respectively, and HillSlope represents the slope; to optimize the fitting effect, the use of other (nonlinear) dose-response models for fitting is not considered as a deviation from the protocol.

[2] = Homo sapiens, NUGC-3, 168 h, NUGC-3 cell proliferation, 7 days, CTG, read-out: IC50
[3] = CYP 3A4M IC50, human liver microsomes, midazolam as substrate
[4] = CYP 3A4T IC50, human liver microsomes, testosterone as substrate

Sequence of CYP 3A4 enzyme in human liver microsomes (P08684 whole entry): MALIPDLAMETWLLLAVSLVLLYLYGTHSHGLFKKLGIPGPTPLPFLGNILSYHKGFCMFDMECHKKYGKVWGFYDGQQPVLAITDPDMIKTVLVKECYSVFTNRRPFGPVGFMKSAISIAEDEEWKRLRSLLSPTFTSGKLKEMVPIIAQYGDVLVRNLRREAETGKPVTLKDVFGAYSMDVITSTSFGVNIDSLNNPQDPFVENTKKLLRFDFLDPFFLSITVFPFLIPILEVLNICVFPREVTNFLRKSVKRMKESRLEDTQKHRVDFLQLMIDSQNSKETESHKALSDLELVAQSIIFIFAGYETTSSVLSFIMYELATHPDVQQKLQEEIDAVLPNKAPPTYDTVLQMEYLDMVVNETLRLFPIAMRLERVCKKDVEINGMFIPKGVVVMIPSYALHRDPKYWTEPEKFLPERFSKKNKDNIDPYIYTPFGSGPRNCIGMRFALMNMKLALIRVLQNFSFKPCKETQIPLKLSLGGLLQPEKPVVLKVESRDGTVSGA

Structure (SMILES)	SC150 (p53-Y220C mutant protein) [nM]	IC50 [1, 3] [µM]	IC50 [1, 4] [µM]	IC50 (NUGC-3 cells; [2]) [µM]	IC50 (NUGC-3 cells; Homo sapiens, NUGC-3, 168 h) [µM]	IC50 (NUGC-3 cells; NUGC-3 cell proliferation, 7 days, CTG, read-out: IC50) [µM]
CN1CC[C@@H](Nc2cccc3c(CC(F)(F)F)c(C#CCNC(=O)c4cc5n(c4)CCOC5)nn23)[C@@H](F)C1 [Compound 281, N-[3-(7-{[(3S,4R)-3-fluoro-1-methylpiperidin-4-yl]amino}-3-(2,2,2-trifluoroethyl)pyrazolo[1,5-a]pyridin-2-yl)prop-2-yn-1-yl]-3,4-dihydro-1H-pyrrolo[2,1-c][1,4]oxazine-7-carboxamide]	13	> 30	> 30	0.413	–	–
CC(n1ncc(C(=O)NCC#Cc2nn3c(N[C@@H]4CCN(C)C[C@@H]4F)cccc3c2CC(F)(F)F)c1N)C(F)(F)F (single isomer, unassigned) [Compound 355A]	7	> 30	14.1	0.167	–	–
CN1CC[C@@H](Nc2cccc3c(CC(F)(F)F)c(C#CCNC(=O)c4ncn(C(C)(C)C)c4N)nn23)[C@@H](F)C1 [Compound 283, 5-amino-1-tert-butyl-N [3-(7-{[(3S,4R)-3-fluoro-1-methylpiperidin-4-yl]amino}-3-(2,2,2-trifluoroethyl)pyrazolo[1,5-a]pyridin-2-yl)prop-2-yn-1-yl]-1H-pyrazole-4-carboxamide]	19	> 30	18.1	–	1.64	–
CCn1ccc(C(=O)NCC#Cc2nn3c(N[C@@H]4CCN(C)C[C@@H]4F)cccc3c2CC(F)(F)F)c1 [Compound 277, 1-ethyl-N-[3-(7-{[(3S,4R)-3-fluoro-1-methylpiperidin-4-yl]amino}-3-(2,2,2-trifluoroethyl)pyrazolo[1,5-a]pyridin-2-yl)prop-2-yn-1-yl]-1H-pyrrole-3-carboxylic acid amide]	14	12.4	15.8	–	0.726	–
CCC(C)(C)n1ncc(C(=O)NCC#Cc2nn3c(N[C@@H]4CCN(C)C[C@@H]4F)cccc3c2CC(F)(F)F)c1N [Compound 351]	7	18.1	22	–	–	–
CC(n1ncc(C(=O)NCC#Cc2nn3c(N[C@@H]4CCN(C)C[C@@H]4F)cccc3c2CC(F)(F)F)c1N)C(F)(F)F (single isomer, unassigned) [Compound 355B]	16	12.5	13.7	–	–	0.154
CN1CC[C@@H](Nc2cccc3c(CC(F)(F)F)c(C#CCNC(=O)c4cnn5c4CC(C)(C)C5)nn23)[C@@H](F)C1 [Compound 146, N-[3-(7-{[(3S,4R)-3-fluoro-1-methylpiperidin-4-yl]amino}-3-(2,2,2-trifluoroethyl)pyrazolo[1,5-a]pyridin-2-yl)prop-2-yn-1-yl]-5,5-dimethyl-5,6-dihydro-4H-pyrrolo[1,2-b]-1Hpyrazole-3-carboxamide]	13	9.7	10.5	–	0.955	–
Cc1cc(C(=O)NCC#Cc2nn3c(N[C@@H]4CCN(C)C[C@@H]4F)cccc3c2CC(F)(F)F)co1 [Compound 278, N-[3-(7-{[(3S,4R)-3-fluoro-1-methylpiperidin-4-yl]amino}-3-(2,2,2-trifluoroethyl)pyrazolo[1,5-a]pyridin-2-yl)prop-2-yn-1-yl]-5-methylfuran-3-carboxamide]	24	14.7	13	1.12	–	–
CC(C)N1CC[C@@H](Nc2cccc3c(CC(F)(F)F)c(C#CCNC(=O)c4cnn(C(C)(C)C)c4N)nn23)[C@@H](F)C1 [Compound 354]	3	15.6	18.5	–	0.177	–
CN1CC[C@@H](Nc2cccc3c(CC(F)(F)F)c(C#CCNC(=O)c4cnn5c4CCCC5)nn23)[C@@H](F)C1 [Compound 276, N-[3-(7-{[(3S,4R)-3-fluoro-1-methylpiperidin-4-yl]amino}-3-(2,2,2-trifluoroethyl)pyrazolo[1,5-a]pyridin-2-yl)prop-2-yn-1-yl]-4,5,6,7-tetrahydropyrazolo[1,5-a]pyridine-3-carboxamide]	18	17.4	> 30	0.856	–	–

Now from value to compound, other results behind:

SC150 (p53-Y220C mutant protein) [nM]	IC50 [1, 3] [µM]	IC50 [1, 4] [µM]	Structure (SMILES)	IC50 (NUGC-3 cells; [2]) [µM]	IC50 (NUGC-3 cells; Homo sapiens, NUGC-3, 168 h) [µM]	IC50 (NUGC-3 cells; NUGC-3 cell proliferation, 7 days, CTG, read-out: IC50) [µM]
4	> 30	16.4	CN1CC[C@@H](Nc2cccc3c(CC(F)(F)F)c(C#CCNC(=O)c4cnn(C5(C)CC5)c4N)nn23)[C@@H](F)C1 [Compound 263, 5-amino-N-[3-(7-{[(3S,4R)-3-fluoro-1-methylpiperidin-4-yl]amino}-3-(2,2,2-trifluoroethyl)pyrazolo[1,5-a]pyridin-2-yl)prop-2-yn-1-yl]-1-(1-methylcyclopropyl)-1H-pyrazole-4-carboxamide]	0.268	–	–
12	> 30	> 30	CN1CC[C@@H](Nc2cccc3c(CC(F)(F)F)c(C#CCNC(=O)c4cnn5c4COCC5)nn23)[C@@H](F)C1 [Compound 274, N-[3-(7-{[(3S,4R)-3-fluoro-1-methylpiperidin-4-yl]amino}-3-(2,2,2-trifluoroethyl)pyrazolo[1,5-a]pyridin-2-yl)prop-2-yn-1-yl]-6,7-dihydro-4H-pyrazolo[5,1-c][1,4]oxazine-3-carboxamide]	0.611	–	–
9	18	24.3	COCCn1ccc(C(=O)NCC#Cc2nn3c(N[C@@H]4CCN(C)C[C@@H]4F)cccc3c2CC(F)(F)F)c1 [Compound 279, N-[3-(7-{[(3S,4R)-3-fluoro-1-methylpiperidin-4-yl]amino}-3-(2,2,2-trifluoroethyl)pyrazolo[1,5-a]pyridin-2-yl)prop-2-yn-1-yl]-1-(methoxyethyl)-1H-pyrrole-3-carboxamide]	0.672	–	–
6	> 30	> 30	CCn1cc(C(=O)NCC#Cc2nn3c(N[C@@H]4CCN(C)C[C@@H]4F)cccc3c2CC(F)(F)F)cn1 [Compound 004, 1-ethyl-N-[3-(7-{[(3S,4R)-3-fluoro-1-methylpiperidin-4-yl]amino}-3-(2,2,2-trifluoroethyl)pyrazolo[1,5-a]pyridin-2-yl)prop-2-yn-1-yl]-1H-pyrazole-4-carboxamide]	–	–	–
27	> 30	> 30	CN1CC[C@@H](Nc2cccc3c(CC(F)(F)F)c(C#CCNC(=O)c4ccc(N5CCOCC5)nc4)nn23)[C@@H](F)C1 [Compound 275, N-[3-(7-{[(3S,4R)-3-fluoro-1-methylpiperidin-4-yl]amino}-3-(2,2,2-trifluoroethyl)pyrazolo[1,5-a]pyridin-2-yl)prop-2-yn-1-yl]-(6-morpholin-4-yl)pyridine-3-carboxamide]	0.901	–	–
19	> 30	> 30	CN1CC[C@@H](Nc2cccc3c(CC(F)(F)F)c(C#CCNC(=O)c4ccn(C(C)(C)C)c4)nn23)[C@@H](F)C1 [Compound 087, 1-(tert-butyl)-N-(3-(7-{[(3S,4R)-3-fluoro-1-methylpiperidin-4-yl]amino}-3-(2,2,2-trifluoroethyl)pyrazolo[1,5-a]pyridin-2-yl)prop-2-yn-1-yl)-1H-pyrrole-3-carboxamide]	1.37	–	–
